Data as given in US8853418B2, “Cyclopentylpyrazoles as N-type calcium channel blockers” (Janssen Pharmaceutica NV, priority 2012, dated 2014).
Where two headings read alike, the source gives them in different places.

Assays:
[1] = biological target: N-type calcium channel (α1B (Cav2.2), β3 and α2δ subunits) (Homo sapiens, UniProt Q00975); test: Functional Assay: Antagonism of N-Type Calcium Channel (FDSS calcium mobilization, KCl depolarization); assay type: cell-based; details: for IC50: HEK cell line, 50 mM KCl depolarization, six-point concentration-response, read-out: FDSS IC50
N-type calcium channel (α1B (Cav2.2), β3 and α2δ subunits), sequence (Q00975 whole entry): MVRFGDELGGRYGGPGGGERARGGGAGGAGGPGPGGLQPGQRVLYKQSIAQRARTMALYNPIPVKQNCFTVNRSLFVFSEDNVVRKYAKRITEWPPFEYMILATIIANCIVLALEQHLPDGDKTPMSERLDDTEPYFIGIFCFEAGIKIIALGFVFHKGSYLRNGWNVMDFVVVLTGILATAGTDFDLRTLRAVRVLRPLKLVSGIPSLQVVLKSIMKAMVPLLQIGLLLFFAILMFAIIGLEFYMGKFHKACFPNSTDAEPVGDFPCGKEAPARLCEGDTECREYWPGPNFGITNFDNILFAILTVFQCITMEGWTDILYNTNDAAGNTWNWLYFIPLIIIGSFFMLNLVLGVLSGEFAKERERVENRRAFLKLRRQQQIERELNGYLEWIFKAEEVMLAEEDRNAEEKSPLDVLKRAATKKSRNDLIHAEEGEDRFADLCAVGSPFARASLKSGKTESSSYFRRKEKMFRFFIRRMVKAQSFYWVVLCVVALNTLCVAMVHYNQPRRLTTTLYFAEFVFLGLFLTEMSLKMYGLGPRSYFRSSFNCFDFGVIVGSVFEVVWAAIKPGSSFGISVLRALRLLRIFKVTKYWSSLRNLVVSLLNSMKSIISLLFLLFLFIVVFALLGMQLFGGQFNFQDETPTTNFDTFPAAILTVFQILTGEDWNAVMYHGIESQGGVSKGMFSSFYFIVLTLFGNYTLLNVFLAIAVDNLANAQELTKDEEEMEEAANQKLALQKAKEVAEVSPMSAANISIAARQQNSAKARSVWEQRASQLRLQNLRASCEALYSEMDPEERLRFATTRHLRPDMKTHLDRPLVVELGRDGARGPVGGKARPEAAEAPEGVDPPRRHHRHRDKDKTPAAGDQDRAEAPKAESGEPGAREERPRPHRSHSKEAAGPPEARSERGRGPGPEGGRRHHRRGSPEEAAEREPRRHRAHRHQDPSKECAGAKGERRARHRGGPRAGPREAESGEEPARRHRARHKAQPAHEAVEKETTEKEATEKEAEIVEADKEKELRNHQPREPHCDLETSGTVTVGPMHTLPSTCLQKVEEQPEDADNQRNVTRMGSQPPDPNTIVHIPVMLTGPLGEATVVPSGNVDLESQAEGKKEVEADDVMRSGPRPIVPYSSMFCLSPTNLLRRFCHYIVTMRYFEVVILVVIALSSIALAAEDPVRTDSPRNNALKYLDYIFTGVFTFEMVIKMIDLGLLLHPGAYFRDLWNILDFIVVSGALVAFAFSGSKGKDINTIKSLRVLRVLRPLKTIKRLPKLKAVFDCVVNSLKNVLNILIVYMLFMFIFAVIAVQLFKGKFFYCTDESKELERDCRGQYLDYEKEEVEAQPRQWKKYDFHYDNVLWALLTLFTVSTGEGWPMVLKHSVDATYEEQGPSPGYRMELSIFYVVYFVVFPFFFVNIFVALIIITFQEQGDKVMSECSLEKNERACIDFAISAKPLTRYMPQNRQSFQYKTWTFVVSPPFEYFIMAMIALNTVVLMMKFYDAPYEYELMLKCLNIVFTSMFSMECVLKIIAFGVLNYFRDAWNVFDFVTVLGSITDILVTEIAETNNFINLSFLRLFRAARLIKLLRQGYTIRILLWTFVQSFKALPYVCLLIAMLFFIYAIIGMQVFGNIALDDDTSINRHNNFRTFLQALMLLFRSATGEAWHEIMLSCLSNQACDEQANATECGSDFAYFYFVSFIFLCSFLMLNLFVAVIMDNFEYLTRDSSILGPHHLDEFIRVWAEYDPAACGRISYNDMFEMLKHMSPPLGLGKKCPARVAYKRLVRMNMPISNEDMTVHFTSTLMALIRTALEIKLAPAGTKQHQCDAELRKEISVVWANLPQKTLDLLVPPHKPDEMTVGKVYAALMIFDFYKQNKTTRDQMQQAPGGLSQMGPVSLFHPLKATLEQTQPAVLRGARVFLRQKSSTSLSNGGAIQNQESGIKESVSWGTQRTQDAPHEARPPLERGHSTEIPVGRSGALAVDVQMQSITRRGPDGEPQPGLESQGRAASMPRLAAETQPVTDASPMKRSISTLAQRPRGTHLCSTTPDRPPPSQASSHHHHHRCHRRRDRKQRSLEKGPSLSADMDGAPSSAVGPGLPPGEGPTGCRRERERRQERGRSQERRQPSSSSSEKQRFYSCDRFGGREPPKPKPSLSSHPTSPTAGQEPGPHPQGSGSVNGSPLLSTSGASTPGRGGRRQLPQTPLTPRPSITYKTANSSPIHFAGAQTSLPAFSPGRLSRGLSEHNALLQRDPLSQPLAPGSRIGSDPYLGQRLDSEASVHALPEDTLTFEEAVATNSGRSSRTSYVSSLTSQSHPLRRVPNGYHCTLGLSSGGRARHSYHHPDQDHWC
N-type calcium channel (α1B (Cav2.2), β3 and α2δ subunits), sequence (P54284 whole entry partner): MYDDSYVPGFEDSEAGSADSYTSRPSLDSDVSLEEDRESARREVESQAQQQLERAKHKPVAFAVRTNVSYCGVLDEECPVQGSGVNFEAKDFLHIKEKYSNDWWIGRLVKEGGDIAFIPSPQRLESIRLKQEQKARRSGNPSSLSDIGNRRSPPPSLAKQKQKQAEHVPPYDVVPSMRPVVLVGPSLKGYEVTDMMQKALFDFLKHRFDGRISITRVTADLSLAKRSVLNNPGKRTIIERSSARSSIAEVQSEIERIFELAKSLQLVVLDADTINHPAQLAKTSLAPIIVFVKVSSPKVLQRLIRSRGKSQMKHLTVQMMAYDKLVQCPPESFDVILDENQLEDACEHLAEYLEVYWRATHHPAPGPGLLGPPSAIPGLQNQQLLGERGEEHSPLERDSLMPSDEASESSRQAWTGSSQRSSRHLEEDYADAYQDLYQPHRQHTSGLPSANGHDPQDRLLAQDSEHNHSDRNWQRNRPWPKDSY
N-type calcium channel (α1B (Cav2.2), β3 and α2δ subunits), sequence (P54289 25-946 partner limits assumed): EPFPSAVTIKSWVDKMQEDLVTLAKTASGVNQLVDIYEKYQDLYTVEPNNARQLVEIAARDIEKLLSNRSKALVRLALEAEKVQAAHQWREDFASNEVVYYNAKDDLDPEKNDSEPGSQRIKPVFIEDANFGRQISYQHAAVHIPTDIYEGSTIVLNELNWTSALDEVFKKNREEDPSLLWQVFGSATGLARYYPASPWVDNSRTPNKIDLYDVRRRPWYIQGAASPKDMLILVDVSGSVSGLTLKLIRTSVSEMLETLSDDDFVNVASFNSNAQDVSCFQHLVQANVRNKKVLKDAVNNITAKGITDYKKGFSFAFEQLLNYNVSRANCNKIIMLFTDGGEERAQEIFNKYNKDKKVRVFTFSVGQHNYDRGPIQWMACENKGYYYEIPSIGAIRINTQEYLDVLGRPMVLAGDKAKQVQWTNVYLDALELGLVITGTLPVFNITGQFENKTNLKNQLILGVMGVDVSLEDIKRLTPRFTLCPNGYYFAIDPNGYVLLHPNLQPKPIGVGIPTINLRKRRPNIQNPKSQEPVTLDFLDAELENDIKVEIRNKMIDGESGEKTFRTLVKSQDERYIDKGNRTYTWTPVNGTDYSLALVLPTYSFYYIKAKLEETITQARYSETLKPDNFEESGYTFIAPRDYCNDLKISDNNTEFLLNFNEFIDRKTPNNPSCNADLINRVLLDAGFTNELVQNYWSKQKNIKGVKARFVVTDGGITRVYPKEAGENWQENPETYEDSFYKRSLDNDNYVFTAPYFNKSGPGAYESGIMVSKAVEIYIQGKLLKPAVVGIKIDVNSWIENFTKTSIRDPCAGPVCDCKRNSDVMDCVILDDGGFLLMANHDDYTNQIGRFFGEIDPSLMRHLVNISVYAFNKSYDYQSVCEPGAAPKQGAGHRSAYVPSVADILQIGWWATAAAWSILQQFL
N-type calcium channel (α1B (Cav2.2), β3 and α2δ subunits), sequence (P54289 947-1103 partner limits assumed): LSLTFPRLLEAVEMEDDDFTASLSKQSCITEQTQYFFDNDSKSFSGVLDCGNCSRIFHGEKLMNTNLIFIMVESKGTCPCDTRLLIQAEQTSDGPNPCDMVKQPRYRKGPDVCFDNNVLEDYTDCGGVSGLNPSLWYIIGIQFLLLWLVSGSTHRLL
Procedure, shortened: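 HEK cells stably co-expressing α1B (Cav2.2), β3 and α2δ were loaded with calcium dye, then given compound with fluorescence recorded for 5 min before 50 mM KCl depolarisation and 3 min more reading. IC50 came from six-point curves of maximal fluorescence, normalised to KCl maximum and buffer minimum.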

[2] = biological target: N-type calcium channel (Homo sapiens, UniProt Q00975); test: Automated Electrophysiology Assay (QPatch-HT whole-cell patch clamp; low- and high-frequency stimulation); assay type: cell-based
N-type calcium channel, sequence (Q00975 whole entry): as the sequence (Q00975 whole entry) above
N-type calcium channel, sequence (P54284 whole entry partner): as the sequence (P54284 whole entry partner) above
N-type calcium channel, sequence (P54289 25-946 partner limits assumed): as the sequence (P54289 25-946 partner limits assumed) above
N-type calcium channel, sequence (P54289 947-1103 partner limits assumed): as the sequence (P54289 947-1103 partner limits assumed) above

[3] = high-frequency stimulation (15th pulse), read-out: QPatch at High Frequency % Inhibition
[4] = low frequency, read-out: QPatch at Low Frequency % Inhibition

Compound: COc1ccccc1-n1nc2c(c1-c1ccc(Cl)cc1)CC(CCNC(=O)OC(C)(C)C)C2 (stereo not shown) [Compound 13, tert-butyl{2-[3-(4-chlorophenyl)-2-(2-methoxyphenyl)-2,4,5,6-tetrahydrocyclopenta[c]pyrazol-5-yl]ethyl}carbamate]
- IC50 [1]: 38 nM
- inhibition at 1 µM [2, 3]: 67%
- inhibition at 1 µM [2, 4]: 42%

Compound: CCc1ccccc1-n1nc2c(c1-c1ccc(Cl)cc1)CC(CNC(=O)OC(C)(C)C)C2 (stereo not shown) [Compound 16, tert-butyl{[3-(4-chlorophenyl)-2-(2-ethylphenyl)-2,4,5,6-tetrahydrocyclopenta[c]pyrazol-5-yl]methyl}carbamate]
- IC50 [1]: 130 nM
- inhibition at 1 µM [2, 3]: 43%
- inhibition at 1 µM [2, 4]: 19%

Compound: O=C1Cc2nn(-c3ccccc3OC(F)(F)F)c(-c3ccc(Cl)cc3)c2C1 [Compound 27, 3-(4-chlorophenyl)-2-[2-(trifluoromethoxy)phenyl]-2,6-dihydrocyclopenta[c]pyrazol-5(4H)-one]
- IC50 [1]: 11 nM
- inhibition at 0.1 µM [2, 3]: -14%
- inhibition at 0.1 µM [2, 4]: -16%

Compound: COc1ccccc1-n1nc2c(c1-c1ccc(Cl)cc1)CC(OC(=O)N(C)C)C2 (stereo not shown) [Compound 28, 3-(4-chlorophenyl)-2-(2-methoxyphenyl)-2,4,5,6-tetrahydrocyclopenta[c]pyrazol-5-yl dimethylcarbamate]
- IC50 [1]: 15 nM
- inhibition at 0.1 µM [2, 3]: 45%
- inhibition at 0.1 µM [2, 4]: 25%

Compound: COc1ccccc1-n1nc2c(c1-c1ccc(Cl)cc1)CC(OC(=O)N1CCOCC1)C2 (stereo not shown) [Compound 29, 3-(4-chlorophenyl)-2-(2-methoxyphenyl)-2,4,5,6-tetrahydrocyclopenta[c]pyrazol-5-yl morpholine-4-carboxylate]
- IC50 [1]: 43 nM
- inhibition at 0.1 µM [2, 3]: 21%
- inhibition at 0.1 µM [2, 4]: -8%

Compound: CCOc1ccccc1-n1nc2c(c1-c1ccc(Cl)cc1)CC(OC(=O)N(C)C)C2 (stereo not shown) [Compound 30, 3-(4-chlorophenyl)-2-(2-ethoxyphenyl)-2,4,5,6-tetrahydrocyclopenta[c]pyrazol-5-yl dimethylcarbamate]
- IC50 [1]: 28 nM
- inhibition at 0.1 µM [2, 3]: 25%
- inhibition at 0.1 µM [2, 4]: 9%

Compound: CCOc1ccccc1-n1nc2c(c1-c1ccc(Cl)cc1)CC(OC(=O)N1CCOCC1)C2 (stereo not shown) [Compound 31, 3-(4-chlorophenyl)-2-(2-ethoxyphenyl)-2,4,5,6-tetrahydrocyclopenta[c]pyrazol-5-yl morpholine-4-carboxylate]
- IC50 [1]: 18 nM
- inhibition at 0.1 µM [2, 3]: 22%
- inhibition at 0.1 µM [2, 4]: 14%

Compound: COc1ccccc1-n1nc2c(c1-c1ccc(Cl)cc1)CC(NS(C)(=O)=O)C2 (stereo not shown) [Compound 32, N-[3-(4-chlorophenyl)-2-(2-methoxyphenyl)-2,4,5,6-tetrahydrocyclopenta[c]pyrazol-5-yl]methanesulfonamide]
- IC50 [1]: 26 nM
- inhibition at 0.1 µM [2, 3]: 20%
- inhibition at 0.1 µM [2, 4]: 18%

Compound: COc1ccccc1-n1nc2c(c1-c1ccc(Cl)cc1)CC(NS(=O)(=O)C(C)C)C2 (stereo not shown) [Compound 33, N-[3-(4-chlorophenyl)-2-(2-methoxyphenyl)-2,4,5,6-tetrahydrocyclopenta[c]pyrazol-5-yl]propane-2-sulfonamide]
- IC50 [1]: 18 nM
- inhibition at 0.1 µM [2, 3]: 42%
- inhibition at 0.1 µM [2, 4]: 35%

Compound: COc1ccccc1-n1nc2c(c1-c1ccc(Cl)cc1)CC(NS(=O)(=O)N(C)C)C2 (stereo not shown) [Compound 34, N′-[3-(4-chlorophenyl)-2-(2-methoxyphenyl)-2,4,5,6-tetrahydrocyclopenta[c]pyrazol-5-yl]-N,N-dimethylsulfamide]
- IC50 [1]: 14 nM
- inhibition at 0.1 µM [2, 3]: 37%
- inhibition at 0.1 µM [2, 4]: 34%

Compound: CCOc1ccccc1-n1nc2c(c1-c1ccc(Cl)cc1)CC(=O)C2 [Compound 36, 3-(4-chlorophenyl)-2-(2-ethoxyphenyl)-2,6-dihydrocyclopenta[c]pyrazol-5(4H)-one]
- IC50 [1]: 29 nM
- inhibition at 0.1 µM [2, 3]: 26%
- inhibition at 0.1 µM [2, 4]: 18%

Compound: COc1ccccc1-n1nc2c(c1-c1ccc(Cl)cc1)CC(N(C)S(C)(=O)=O)C2 (stereo not shown) [Compound 37, N-[3-(4-chlorophenyl)-2-(2-methoxyphenyl)-2,4,5,6-tetrahydrocyclopenta[c]pyrazol-5-yl]-N-methylmethanesulfonamide]
- IC50 [1]: 6.4 nM
- inhibition at 0.1 µM [2, 3]: 46%
- inhibition at 0.1 µM [2, 4]: 44%

Compound: CCOc1ccccc1-n1nc2c(c1-c1ccc(Cl)cc1)CC(N1C(=O)CCC1=O)C2 (stereo not shown) [Compound 38, 1-[3-(4-chlorophenyl)-2-(2-ethoxyphenyl)-2,4,5,6-tetrahydrocyclopenta[c]pyrazol-5-yl]pyrrolidine-2,5-dione]
- IC50 [1]: 7.5 nM
- inhibition at 0.1 µM [2, 3]: 53%
- inhibition at 0.1 µM [2, 4]: 47%

Compound: CCOc1ccccc1-n1nc2c(c1-c1ccc(Cl)cc1)CC(n1ccnc1)C2 (stereo not shown) [Compound 39, 3-(4-chlorophenyl)-2-(2-ethoxyphenyl)-5-(1H-imidazol-1-yl)-2,4,5,6-tetrahydrocyclopenta[c]pyrazole]
- inhibition at 0.33 µM [1]: 81%
- IC50 [1]: 38 nM
- inhibition at 0.1 µM [2, 3]: 29%
- inhibition at 0.25 µM [2, 3]: 47%
- inhibition at 1 µM [2, 3]: 72%
- inhibition at 0.1 µM [2, 4]: 13%
- inhibition at 0.25 µM [2, 4]: 34%
- inhibition at 1 µM [2, 4]: 51%

Compound: CCOc1ccccc1-n1nc2c(c1-c1ccc(Cl)cc1)CC(n1cc([Si](C)(C)C)nn1)C2 (stereo not shown) [Compound 41, 3-(4-chlorophenyl)-2-(2-ethoxyphenyl)-5-[4-(trimethylsilyl)-1H-1,2,3-triazol-1-yl]-2,4,5,6-tetrahydrocyclopenta[c]pyrazole]
- inhibition at 0.33 µM [1]: 92%
- IC50 [1]: 24 nM
- inhibition at 0.1 µM [2, 3]: 60%
- inhibition at 0.1 µM [2, 4]: 58%

Compound: CCOc1ccccc1-n1nc2c(c1-c1ccc(Cl)cc1)CC(n1ccnn1)C2 (stereo not shown) [Compound 42, 3-(4-chlorophenyl)-2-(2-ethoxyphenyl)-5-(1H-1,2,3-triazol-1-yl)-2,4,5,6-tetrahydrocyclopenta[c]pyrazole]
- inhibition at 0.33 µM [1]: 91%
- IC50 [1]: 19 nM
- inhibition at 1 µM [2, 3]: 87%
- inhibition at 1 µM [2, 4]: 86%

Compound: CCOc1ccccc1-n1nc2c(c1-c1ccc(Cl)cc1)C[C@@H](n1ccnc1)C2 [Compound 43, (5R)-3-(4-chlorophenyl)-2-(2-ethoxyphenyl)-5-(1H-imidazol-1-yl)-2,4,5,6-tetrahydrocyclopenta[c]pyrazole]
- inhibition at 0.33 µM [1]: 87%
- IC50 [1]: 42 nM
- inhibition at 0.1 µM [2, 3]: 5%
- inhibition at 0.1 µM [2, 4]: -22%

Compound: CCOc1ccccc1-n1nc2c(c1-c1ccc(Cl)cc1)C[C@@H](NS(=O)(=O)C(C)C)C2 [Compound 44, N-[(5R)-3-(4-chlorophenyl)-2-(2-ethoxyphenyl)-2,4,5,6-tetrahydrocyclopenta[c]pyrazol-5-yl]propane-2-sulfonamide]
- inhibition at 0.33 µM [1]: 89%
- IC50 [1]: 32 nM
- inhibition at 0.1 µM [2, 3]: 48%
- inhibition at 0.1 µM [2, 4]: 42%

Compound: CCOc1ccccc1-n1nc2c(c1-c1ccc(Cl)cc1)C[C@@H](NC(=O)C(F)(F)F)C2 [Compound 45, N-[(5R)-3-(4-chlorophenyl)-2-(2-ethoxyphenyl)-2,4,5,6-tetrahydrocyclopenta[c]pyrazol-5-yl]-2,2,2-trifluoroacetamide]
- inhibition at 0.33 µM [1]: 94%
- IC50 [1]: 4 nM
- inhibition at 0.1 µM [2, 3]: 68%
- inhibition at 0.1 µM [2, 4]: 60%

Compound: CCOc1ccccc1-n1nc2c(c1-c1ccc(Cl)cc1)C[C@@H](N(C)S(=O)(=O)N(C)C)C2 [Compound 46, N-[(5R)-3-(4-chlorophenyl)-2-(2-ethoxyphenyl)-2,4,5,6-tetrahydrocyclopenta[c]pyrazol-5-yl]-N,N′,N′-trimethylsulfamide]
- inhibition at 0.33 µM [1]: 99%
- IC50 [1]: 2.6 nM
- inhibition at 0.1 µM [2, 3]: 50%
- inhibition at 0.1 µM [2, 4]: 21%

Compound: CCOc1ccccc1-n1nc2c(c1-c1ccc(Cl)cc1)CC(NS(=O)(=O)N(C)C)C2 (stereo not shown) [Compound 47, N′-[3-(4-chlorophenyl)-2-(2-ethoxyphenyl)-2,4,5,6-tetrahydrocyclopenta[c]pyrazol-5-yl]-N,N-dimethylsulfamide]
- inhibition at 0.33 µM [1]: 92%
- IC50 [1]: 4 nM
- inhibition at 0.1 µM [2, 3]: 19%
- inhibition at 0.1 µM [2, 4]: 15%

Compound: CCOc1ccccc1-n1nc2c(c1-c1ccc(Cl)cc1)CC(N(C)S(=O)(=O)N(C)C)C2 (stereo not shown) [Compound 48, N-[3-(4-chlorophenyl)-2-(2-ethoxyphenyl)-2,4,5,6-tetrahydrocyclopenta[c]pyrazol-5-yl]-N,N′,N′-trimethylsulfamide]
- inhibition at 0.33 µM [1]: 97%
- IC50 [1]: 1.2 nM
- inhibition at 0.1 µM [2, 3]: 63%
- inhibition at 0.1 µM [2, 4]: 52%

Compound: CN(C)S(=O)(=O)N(C)[C@@H]1Cc2nn(-c3cccc4c3OCC4)c(-c3ccc(Cl)cc3)c2C1 [Compound 50, N-[(5S)-3-(4-chlorophenyl)-2-(2,3-dihydro-1-benzofuran-7-yl)-2,4,5,6-tetrahydrocyclopenta[c]pyrazol-5-yl]-N,N′,N′-trimethylsulfamide]
- inhibition at 0.33 µM [1]: 95%
- IC50 [1]: 14 nM
- inhibition at 0.1 µM [2, 3]: 41%
- inhibition at 0.1 µM [2, 4]: 33%

Compound: CC(C)S(=O)(=O)N(C)[C@@H]1Cc2nn(-c3cccc4c3OCC4)c(-c3ccc(Cl)cc3)c2C1 [Compound 51, N-[(5S)-3-(4-chlorophenyl)-2-(2,3-dihydro-1-benzofuran-7-yl)-2,4,5,6-tetrahydrocyclopenta[c]pyrazol-5-yl]-N-methylpropane-2-sulfonamide]
- inhibition at 0.33 µM [1]: 94%
- IC50 [1]: 34 nM
- inhibition at 1 µM [2, 3]: 66%
- inhibition at 1 µM [2, 4]: 49%

Compound: COc1ccccc1-n1nc2c(c1-c1ccc(Cl)cc1)CC1(C2)OCCCO1 [Compound 54, 3-(4-chlorophenyl)-2-(2-methoxyphenyl)-2,6-dihydro-4H-spiro[cyclopenta[c]pyrazole-5,2′-[1,3]dioxane]]
- inhibition at 0.33 µM [1]: 86%
- IC50 [1]: 50 nM
- inhibition at 1 µM [2, 3]: 67%
- inhibition at 1 µM [2, 4]: 55%
